In PubChem BioAssay (NCI):
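Following 48 hours of exposure in 96-well plates, responses at five concentrations were used to interpolate endpoints linearly. The concentration for 50% growth inhibition is given as GI50. TGI: total growth inhibition.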

Tested on: SF-295 CNS
Test: NCI anticancer screen, dose series, 48 h

`COc1ccc(-c2cc(-c3ccc(Nc4nc(Nc5ccccc5)nc(Nc5ccc(Cl)cc5)n4)cc3)nc(N)c2C#N)cc1` was tested, and the GI50 was 1.54 µM.

Point of comparison: `COc1ccc(-c2cc(-c3ccc(Nc4nc(Nc5ccccc5)nc(Nc5ccc(Cl)cc5)n4)cc3)nc(N)c2C#N)cc1`, TGI 7.28 µM. Against it:
- O=C1C2=C(SCCS2)C(=O)c2ccccc21 — 2.3-fold lower, 3.14 µM

Tested on: LOX IMVI melanoma
Test: NCI anticancer screen, dose series, 48 h

Point of comparison: `CC(=O)[O][Hg][c]1c(N)c(C)cc(C)c1F`, GI50 0.833 µM. Against it:
- CCOc1ccccc1-n1c(CN2CCN(C(=O)COc3ccc(CNCCCCCCN4C5CCCC4CC(OC(=O)Nc4cc(C)ccc4OC)C5)cc3)CC2)nc2ccccc2c1=O (stereo unspecified) — within 1.5-fold, 0.582 µM
- CC1(C)COC(c2ccc(C(F)(F)F)cc2C(O)c2ccc3ccccc3c2)=N1 (stereo unspecified) — higher, > 100 µM
- O=C(CCl)N1c2ccccc2Oc2ccc3ccccc3c21 — 2.4-fold lower, 0.347 µM
- COc1ccc(-c2cc(-c3ccc(Nc4nc(Nc5ccccc5)nc(Nc5ccc(Cl)cc5)n4)cc3)nc(N)c2C#N)cc1 — within 1.5-fold, 0.837 µM

Point of comparison: `NC1CCC(Nc2nc(NCc3ccc(-c4ccco4)nc3)c3ncn(C4CCCC4)c3n2)CC1` (stereo unspecified), TGI 21.9 µM. Against it:
- CCOc1ccccc1-n1c(CN2CCN(C(=O)COc3ccc(CNCCCCCCN4C5CCCC4CC(OC(=O)Nc4cc(C)ccc4OC)C5)cc3)CC2)nc2ccccc2c1=O (stereo unspecified) — 20-fold lower, 1.08 µM
- COc1ccc2nc3cc(Cl)ccc3c(Sc3ccccc3[N+](=O)[O-])c2c1 — higher, > 100 µM
- O=C(O)C(Cc1ccccc1)N1C(=O)N/C(=C\c2ccc(F)cc2)C1=O (stereo unspecified) — higher, > 100 µM
- CC1(C)COC(c2ccc(C(F)(F)F)cc2C(O)c2ccc3ccccc3c2)=N1 (stereo unspecified) — higher, > 100 µM
- COc1ccc(NC(=O)c2cc(OC)cc(OC)c2)cc1 — higher, > 100 µM
- COc1ccc(/C=C\c2cc(OC)c3c(c2)OCO3)c(O)c1O — within 1.5-fold, 16.6 µM
- CC[C@@]12CCCN3CC[C@]4(c5cccc(OC)c5N(C(C)=O)[C@@H]4CC1)[C@H]32 — higher, > 100 µM
- CC(=O)[O][Hg][c]1c(N)c(C)cc(C)c1F — 8.6-fold lower, 2.54 µM
- CSc1ccccc1C#C/C=C\C#Cc1ccccc1N1CCCC1=O — higher, > 50 µM
- O=C(CCl)N1c2ccccc2Oc2ccc3ccccc3c21 — 16-fold lower, 1.41 µM
- Cc1ccc(-c2nnc(-c3ccc4ccccc4c3)o2)cc1 — higher, > 100 µM
- COc1ccc(-c2cc(-c3ccc(Nc4nc(Nc5ccccc5)nc(Nc5ccc(Cl)cc5)n4)cc3)nc(N)c2C#N)cc1 — 14-fold lower, 1.58 µM
- O=C1C2=C(SCCS2)C(=O)c2ccccc21 — 9.6-fold lower, 2.27 µM

Tested on: OVCAR-5 ovarian
Test: NCI anticancer screen, dose series, 48 h

Point of comparison: `NC1CCC(Nc2nc(NCc3ccc(-c4ccco4)nc3)c3ncn(C4CCCC4)c3n2)CC1` (stereo unspecified), GI50 0.0324 µM. Against it:
- CCOc1ccccc1-n1c(CN2CCN(C(=O)COc3ccc(CNCCCCCCN4C5CCCC4CC(OC(=O)Nc4cc(C)ccc4OC)C5)cc3)CC2)nc2ccccc2c1=O (stereo unspecified) — 59-fold higher, 1.9 µM
- CC1(C)COC(c2ccc(C(F)(F)F)cc2C(O)c2ccc3ccccc3c2)=N1 (stereo unspecified) — higher, > 100 µM
- CC(=O)[O][Hg][c]1c(N)c(C)cc(C)c1F — 60-fold higher, 1.95 µM
- CSc1ccccc1C#C/C=C\C#Cc1ccccc1N1CCCC1=O — higher, > 24.2 µM
- O=C(CCl)N1c2ccccc2Oc2ccc3ccccc3c21 — 56-fold higher, 1.81 µM
- COc1ccc(-c2cc(-c3ccc(Nc4nc(Nc5ccccc5)nc(Nc5ccc(Cl)cc5)n4)cc3)nc(N)c2C#N)cc1 — 35-fold higher, 1.13 µM

Point of comparison: `COc1ccc(-c2cc(-c3ccc(Nc4nc(Nc5ccccc5)nc(Nc5ccc(Cl)cc5)n4)cc3)nc(N)c2C#N)cc1`, TGI 2.86 µM. Against it:
- CCOc1ccccc1-n1c(CN2CCN(C(=O)COc3ccc(CNCCCCCCN4C5CCCC4CC(OC(=O)Nc4cc(C)ccc4OC)C5)cc3)CC2)nc2ccccc2c1=O (stereo unspecified) — within 1.5-fold, 3.45 µM
- COc1ccc2nc3cc(Cl)ccc3c(Sc3ccccc3[N+](=O)[O-])c2c1 — higher, > 100 µM
- O=C(O)C(Cc1ccccc1)N1C(=O)N/C(=C\c2ccc(F)cc2)C1=O (stereo unspecified) — higher, > 100 µM
- CC1(C)COC(c2ccc(C(F)(F)F)cc2C(O)c2ccc3ccccc3c2)=N1 (stereo unspecified) — higher, > 100 µM
- COc1ccc(NC(=O)c2cc(OC)cc(OC)c2)cc1 — higher, > 100 µM
- COc1ccc(/C=C\c2cc(OC)c3c(c2)OCO3)c(O)c1O — 19-fold higher, 55 µM
- CC[C@@]12CCCN3CC[C@]4(c5cccc(OC)c5N(C(C)=O)[C@@H]4CC1)[C@H]32 — higher, > 100 µM
- CC(=O)[O][Hg][c]1c(N)c(C)cc(C)c1F — within 1.5-fold, 3.67 µM
- CSc1ccccc1C#C/C=C\C#Cc1ccccc1N1CCCC1=O — higher, > 50 µM
- NC1CCC(Nc2nc(NCc3ccc(-c4ccco4)nc3)c3ncn(C4CCCC4)c3n2)CC1 (stereo unspecified) — 4.9-fold higher, 14.1 µM
- O=C(CCl)N1c2ccccc2Oc2ccc3ccccc3c21 — within 1.5-fold, 3.59 µM
- Cc1ccc(-c2nnc(-c3ccc4ccccc4c3)o2)cc1 — higher, > 100 µM
- O=C1C2=C(SCCS2)C(=O)c2ccccc21 — within 1.5-fold, 3.23 µM

Tested on: NCI-H522 lung
Test: NCI anticancer screen, dose series, 48 h

Point of comparison: `CC(=O)[O][Hg][c]1c(N)c(C)cc(C)c1F`, GI50 0.167 µM. Against it:
- CCOc1ccccc1-n1c(CN2CCN(C(=O)COc3ccc(CNCCCCCCN4C5CCCC4CC(OC(=O)Nc4cc(C)ccc4OC)C5)cc3)CC2)nc2ccccc2c1=O (stereo unspecified) — 11-fold higher, 1.79 µM
- NC1CCC(Nc2nc(NCc3ccc(-c4ccco4)nc3)c3ncn(C4CCCC4)c3n2)CC1 (stereo unspecified) — 10-fold lower, 0.0164 µM
- O=C(CCl)N1c2ccccc2Oc2ccc3ccccc3c21 — 3.7-fold higher, 0.614 µM
- COc1ccc(-c2cc(-c3ccc(Nc4nc(Nc5ccccc5)nc(Nc5ccc(Cl)cc5)n4)cc3)nc(N)c2C#N)cc1 — 6.9-fold higher, 1.16 µM

Point of comparison: `CCOc1ccccc1-n1c(CN2CCN(C(=O)COc3ccc(CNCCCCCCN4C5CCCC4CC(OC(=O)Nc4cc(C)ccc4OC)C5)cc3)CC2)nc2ccccc2c1=O` (stereo unspecified), TGI 3.45 µM. Against it:
- COc1ccc2nc3cc(Cl)ccc3c(Sc3ccccc3[N+](=O)[O-])c2c1 — higher, > 100 µM
- O=C(O)C(Cc1ccccc1)N1C(=O)N/C(=C\c2ccc(F)cc2)C1=O (stereo unspecified) — higher, > 100 µM
- CC1(C)COC(c2ccc(C(F)(F)F)cc2C(O)c2ccc3ccccc3c2)=N1 (stereo unspecified) — higher, > 10 µM
- COc1ccc(NC(=O)c2cc(OC)cc(OC)c2)cc1 — 24-fold higher, 83.8 µM
- COc1ccc(/C=C\c2cc(OC)c3c(c2)OCO3)c(O)c1O — within 1.5-fold, 3.53 µM
- CC[C@@]12CCCN3CC[C@]4(c5cccc(OC)c5N(C(C)=O)[C@@H]4CC1)[C@H]32 — higher, > 100 µM
- CC(=O)[O][Hg][c]1c(N)c(C)cc(C)c1F — 10-fold lower, 0.344 µM
- CSc1ccccc1C#C/C=C\C#Cc1ccccc1N1CCCC1=O — higher, > 50 µM
- NC1CCC(Nc2nc(NCc3ccc(-c4ccco4)nc3)c3ncn(C4CCCC4)c3n2)CC1 (stereo unspecified) — 47-fold lower, 0.0737 µM
- O=C(CCl)N1c2ccccc2Oc2ccc3ccccc3c21 — 1.8-fold lower, 1.9 µM
- Cc1ccc(-c2nnc(-c3ccc4ccccc4c3)o2)cc1 — higher, > 100 µM
- COc1ccc(-c2cc(-c3ccc(Nc4nc(Nc5ccccc5)nc(Nc5ccc(Cl)cc5)n4)cc3)nc(N)c2C#N)cc1 — within 1.5-fold, 3.38 µM
- O=C1C2=C(SCCS2)C(=O)c2ccccc21 — within 1.5-fold, 3.17 µM

Tested on: SW-620 colon
Test: NCI anticancer screen, dose series, 48 h

Point of comparison: `CC(=O)[O][Hg][c]1c(N)c(C)cc(C)c1F`, GI50 1.44 µM. Against it:
- CCOc1ccccc1-n1c(CN2CCN(C(=O)COc3ccc(CNCCCCCCN4C5CCCC4CC(OC(=O)Nc4cc(C)ccc4OC)C5)cc3)CC2)nc2ccccc2c1=O (stereo unspecified) — 1.9-fold lower, 0.757 µM
- CC1(C)COC(c2ccc(C(F)(F)F)cc2C(O)c2ccc3ccccc3c2)=N1 (stereo unspecified) — higher, > 100 µM
- NC1CCC(Nc2nc(NCc3ccc(-c4ccco4)nc3)c3ncn(C4CCCC4)c3n2)CC1 (stereo unspecified) — 120-fold lower, 0.0117 µM
- O=C(CCl)N1c2ccccc2Oc2ccc3ccccc3c21 — 3.9-fold lower, 0.373 µM
- COc1ccc(-c2cc(-c3ccc(Nc4nc(Nc5ccccc5)nc(Nc5ccc(Cl)cc5)n4)cc3)nc(N)c2C#N)cc1 — within 1.5-fold, 1.04 µM

Point of comparison: `O=C(CCl)N1c2ccccc2Oc2ccc3ccccc3c21`, TGI 1.48 µM. Against it:
- CCOc1ccccc1-n1c(CN2CCN(C(=O)COc3ccc(CNCCCCCCN4C5CCCC4CC(OC(=O)Nc4cc(C)ccc4OC)C5)cc3)CC2)nc2ccccc2c1=O (stereo unspecified) — within 1.5-fold, 2 µM
- COc1ccc2nc3cc(Cl)ccc3c(Sc3ccccc3[N+](=O)[O-])c2c1 — higher, > 100 µM
- O=C(O)C(Cc1ccccc1)N1C(=O)N/C(=C\c2ccc(F)cc2)C1=O (stereo unspecified) — higher, > 100 µM
- CC1(C)COC(c2ccc(C(F)(F)F)cc2C(O)c2ccc3ccccc3c2)=N1 (stereo unspecified) — higher, > 100 µM
- COc1ccc(NC(=O)c2cc(OC)cc(OC)c2)cc1 — higher, > 100 µM
- COc1ccc(/C=C\c2cc(OC)c3c(c2)OCO3)c(O)c1O — 18-fold higher, 26.1 µM
- CC[C@@]12CCCN3CC[C@]4(c5cccc(OC)c5N(C(C)=O)[C@@H]4CC1)[C@H]32 — higher, > 100 µM
- CC(=O)[O][Hg][c]1c(N)c(C)cc(C)c1F — 2.2-fold higher, 3.21 µM
- CSc1ccccc1C#C/C=C\C#Cc1ccccc1N1CCCC1=O — higher, > 17.6 µM
- NC1CCC(Nc2nc(NCc3ccc(-c4ccco4)nc3)c3ncn(C4CCCC4)c3n2)CC1 (stereo unspecified) — 7.8-fold higher, 11.5 µM
- Cc1ccc(-c2nnc(-c3ccc4ccccc4c3)o2)cc1 — higher, > 100 µM
- COc1ccc(-c2cc(-c3ccc(Nc4nc(Nc5ccccc5)nc(Nc5ccc(Cl)cc5)n4)cc3)nc(N)c2C#N)cc1 — 1.6-fold higher, 2.3 µM
- O=C1C2=C(SCCS2)C(=O)c2ccccc21 — 2.5-fold higher, 3.68 µM

Tested on: HOP-92 NSCLC
Test: NCI anticancer screen, dose series, 48 h

Point of comparison: `O=C(CCl)N1c2ccccc2Oc2ccc3ccccc3c21`, GI50 1.59 µM. Against it:
- CCOc1ccccc1-n1c(CN2CCN(C(=O)COc3ccc(CNCCCCCCN4C5CCCC4CC(OC(=O)Nc4cc(C)ccc4OC)C5)cc3)CC2)nc2ccccc2c1=O (stereo unspecified) — within 1.5-fold, 1.37 µM
- CC(=O)[O][Hg][c]1c(N)c(C)cc(C)c1F — within 1.5-fold, 1.53 µM
- NC1CCC(Nc2nc(NCc3ccc(-c4ccco4)nc3)c3ncn(C4CCCC4)c3n2)CC1 (stereo unspecified) — 58-fold lower, 0.0275 µM
- COc1ccc(-c2cc(-c3ccc(Nc4nc(Nc5ccccc5)nc(Nc5ccc(Cl)cc5)n4)cc3)nc(N)c2C#N)cc1 — 2-fold lower, 0.782 µM

Point of comparison: `COc1ccc(-c2cc(-c3ccc(Nc4nc(Nc5ccccc5)nc(Nc5ccc(Cl)cc5)n4)cc3)nc(N)c2C#N)cc1`, TGI 2.62 µM. Against it:
- CCOc1ccccc1-n1c(CN2CCN(C(=O)COc3ccc(CNCCCCCCN4C5CCCC4CC(OC(=O)Nc4cc(C)ccc4OC)C5)cc3)CC2)nc2ccccc2c1=O (stereo unspecified) — within 1.5-fold, 2.76 µM
- COc1ccc2nc3cc(Cl)ccc3c(Sc3ccccc3[N+](=O)[O-])c2c1 — higher, > 100 µM
- O=C(O)C(Cc1ccccc1)N1C(=O)N/C(=C\c2ccc(F)cc2)C1=O (stereo unspecified) — higher, > 100 µM
- CC1(C)COC(c2ccc(C(F)(F)F)cc2C(O)c2ccc3ccccc3c2)=N1 (stereo unspecified) — higher, > 100 µM
- COc1ccc(NC(=O)c2cc(OC)cc(OC)c2)cc1 — higher, > 100 µM
- COc1ccc(/C=C\c2cc(OC)c3c(c2)OCO3)c(O)c1O — 6.1-fold higher, 16.1 µM
- CC[C@@]12CCCN3CC[C@]4(c5cccc(OC)c5N(C(C)=O)[C@@H]4CC1)[C@H]32 — higher, > 100 µM
- CC(=O)[O][Hg][c]1c(N)c(C)cc(C)c1F — within 1.5-fold, 2.92 µM
- CSc1ccccc1C#C/C=C\C#Cc1ccccc1N1CCCC1=O — higher, > 50 µM
- NC1CCC(Nc2nc(NCc3ccc(-c4ccco4)nc3)c3ncn(C4CCCC4)c3n2)CC1 (stereo unspecified) — 33-fold lower, 0.0803 µM
- O=C(CCl)N1c2ccccc2Oc2ccc3ccccc3c21 — within 1.5-fold, 3.31 µM
- Cc1ccc(-c2nnc(-c3ccc4ccccc4c3)o2)cc1 — higher, > 100 µM
- O=C1C2=C(SCCS2)C(=O)c2ccccc21 — within 1.5-fold, 3.05 µM
